The test system of experiment [1] is auxin signaling mutants. Briefly: Effect of activators on lateral root density of auxin signaling mutants (Table 2). The format is in vivo, Arabidopsis thaliana. From the text: (§1) Afb1, Afb2, Afb3 and the triple mutant Tirlafb2afb3 were described by Dhamasiri et al. (2005). Tir1 was described by Ruegger et al., (1998); 1aa28 by Rogg et al., (2001); Tir7-1 by Ruegger et al., (1997); the Cyp79b2b3 double mutant by Ljung et al. (2005); the arf7arf19 double mutant by Fukaki et al., (2005); Aux1 by Bennett et al., (1996); Xbat32 by Nodzon et al., (2004), Axr1-12 by Timpte et al., (1995), Slr1 by Fukaki et al., 2002 and Axr3-1 by Collet et al., (2000) and the mutants were obtained from the publishing authors.
(§2) For phenotypic analysis, all mutants were grown on vertically oriented square plates (Greiner Labortechnik, Austria) with solid medium derived from standard MS medium. The plates were put in a growth chamber under continuous light (110 μE.m2.s1 photosynthetically active radiation, supplied by cool-white fluorescent tungsten tubes; Osram) at 22° C. Three days after germination, the mutant plants were transferred to medium supplemented with compounds and were left to grow for another 7 days. After this, root length and number of lateral roots were counted using ImageJ 1.34 freeware.

Experiment [2] has as its system Wild-type Arabidopsis thaliana. Briefly: Dose-response analysis of lateral root density and root length. Format: in vivo. The protocol:
FIG. 3: Dose-response analysis of class 1 (upper panel) and class 2 (lower panel) activators. Wild-type Arabidopsis thaliana seeds were germinated under standard conditions on agar plates. After 3 days of germination, seedlings were transferred to agar plates containing compound at different concentrations. Lateral root density was measured 10 days after germination. Bars represent standard errors.
FIG. 4: Dose-response analysis of A2, A11, A12, A14 and NAA. Wild-type Arabidopsis thaliana seeds were germinated under standard conditions on agar plates. After 3 days of germination, seedlings were transferred to agar plates containing compound at different concentrations and 1% DMSO. Plants transferred to agar plates containing 1% DMSO and no compound were used as controls. Lateral root density (left panels) and root length (right panels) were measured 10 days after germination. Bars represent standard errors.
For further phenotypic analysis, all plants were grown on vertically oriented square plates (Greiner Labortechnik, Austria) with solid medium derived from standard MS medium under the same conditions. 3 DAG plants were transferred to medium supplemented with compounds and were left to grow for another 7 days. After this, root length and number of LRs were counted using ImageJ 1.34 freeware.
As a subsequent step, the phenotypic effect of the 16 selected activators was determined in a dose-response analysis in which LR density (number of LRs per cm) was quantified (FIG. 3). Based upon potency and structure, two different classes of activators could be identified.

Experiment [3] deals with auxin signaling mutants. Nature of the experiment: Effect of A12 and NAA on lateral root density and root length of auxin signaling mutants (Table 1). The format is in vivo, Arabidopsis thaliana. Details: Root length: unit not given here. Conditions: 30 uM.
Excerpt: as §1, §2
DMSO is used as negative control.

Setting [4] is: tir TM (Tir1afb2afb3 triple mutant).

As to `Nc1ncc(Cc2cccc(Cl)c2Cl)s1` [A3, 5-(2,3-dichlorobenzyl)-1,3-thiazol-2-amine], the lateral root density with auxin signaling mutants [1] (Afb1-1, 3 uM) is given as 17.77 LR/cm; in the experiment with auxin signaling mutants [1] (Afb2-1, 3 uM) it was 19.58 LR/cm; with auxin signaling mutants [1] (Afb3-1, 3 uM) it was 17.45 LR/cm; in the experiment with auxin signaling mutants [1] (Arf7Arf19, 3 uM), 33.59 LR/cm; with auxin signaling mutants [1] (Arf16, 3 uM), 11.32 LR/cm; in the experiment with auxin signaling mutants [1] (Arf17, 3 uM), 13.31 LR/cm. The lateral root density with auxin signaling mutants [1] (Axrt-12, 3 uM) is given as 15.77 LR/cm; with auxin signaling mutants [1] (Cyp79, 3 uM) it was 21.24 LR/cm; in the experiment with auxin signaling mutants [1] (Iaa28-1, 3 uM), 13.96 LR/cm; with auxin signaling mutants [1] (Tir1-1, 3 uM) it was 11.91 LR/cm; with auxin signaling mutants [1] (Tir7-1, 3 uM) it was 26.15 LR/cm; with auxin signaling mutants [1] (TirTM, 3 uM) it was 10.88 LR/cm. Moreover, the lateral root density with auxin signaling mutants [1] (Xbat32, 3 uM) is listed as 13.07 LR/cm.

`Clc1cccc(C=Nc2ccc(N3CCOCC3)cc2)c1Cl` [A4, (2,3-dichlorobenzylidene)[4-(4-morpholinyl)phenyl]amine]: the lateral root density stood at 2.69 LR/cm in the experiment on auxin signaling mutants [1] (Afb1-1, 3 uM); 2.16 LR/cm in the experiment on auxin signaling mutants [1] (Afb2-1, 3 uM); 2.55 LR/cm in the experiment on auxin signaling mutants [1] (Afb3-1, 3 uM); 0.00 LR/cm with auxin signaling mutants [1] (Arf7Arf19, 3 uM); 1.99 LR/cm in the experiment with auxin signaling mutants [1] (Arf16, 3 uM); 1.87 LR/cm in the experiment on auxin signaling mutants [1] (Arf17, 3 uM). Further, the lateral root density in the experiment with auxin signaling mutants [1] (Axrt-12, 3 uM) turned out to be 1.64 LR/cm; in the experiment with auxin signaling mutants [1] (Cyp79, 3 uM), 2.64 LR/cm; in the experiment on auxin signaling mutants [1] (Iaa28-1, 3 uM) it was 0.00 LR/cm; in the experiment with auxin signaling mutants [1] (Tir1-1, 3 uM), 0.89 LR/cm; in the experiment on auxin signaling mutants [1] (Tir7-1, 3 uM), 3.69 LR/cm; in the experiment on auxin signaling mutants [1] (TirTM, 3 uM), 0.00 LR/cm. This compound gave a lateral root density with auxin signaling mutants [1] (Xbat32, 3 uM) of 0.91 LR/cm.

With `O=C(NN=Cc1cccc(Cl)c1Cl)c1ccc(O)c(O)c1` [A6, N′-(2,3-dichlorobenzylidene)-3,4-dihydroxybenzohydrazide], the lateral root density in the experiment with auxin signaling mutants [1] (Afb1-1, 3 uM) was found to be 10.89 LR/cm; in the experiment with auxin signaling mutants [1] (Afb2-1, 3 uM), 7.34 LR/cm; in the experiment with auxin signaling mutants [1] (Afb3-1, 3 uM) it was 14.40 LR/cm; with auxin signaling mutants [1] (Arf7Arf19, 3 uM), 0.00 LR/cm; in the experiment with auxin signaling mutants [1] (Arf16, 3 uM), 6.67 LR/cm; with auxin signaling mutants [1] (Arf17, 3 uM), 7.24 LR/cm. For the same compound, the lateral root density in the experiment on auxin signaling mutants [1] (Axrt-12, 3 uM) was determined as 4.78 LR/cm; with auxin signaling mutants [1] (Cyp79, 3 uM), 31.92 LR/cm; with auxin signaling mutants [1] (Iaa28-1, 3 uM) it was 0.00 LR/cm; with auxin signaling mutants [1] (Tir1-1, 3 uM) it was 0.57 LR/cm; with auxin signaling mutants [1] (Tir7-1, 3 uM), 11.42 LR/cm; with auxin signaling mutants [1] (TirTM, 3 uM), 0.00 LR/cm. In the experiment on auxin signaling mutants [1] (Xbat32, 3 uM), this compound came in with a lateral root density of 10.08 LR/cm.

On to `Cc1c(N=Cc2cccc(Cl)c2Cl)cccc1[N+](=O)[O-]` [A7, (2,3-dichlorobenzylidene)(2-methyl-3-nitrophenyl)amine], for which the lateral root density in the experiment on auxin signaling mutants [1] (Afb1-1, 3 uM) was determined as 9.46 LR/cm; in the experiment with auxin signaling mutants [1] (Afb2-1, 3 uM) it was 2.69 LR/cm; with auxin signaling mutants [1] (Afb3-1, 3 uM) it was 17.43 LR/cm; in the experiment with auxin signaling mutants [1] (Arf7Arf19, 3 uM), 0.00 LR/cm; with auxin signaling mutants [1] (Arf16, 3 uM), 2.71 LR/cm; in the experiment on auxin signaling mutants [1] (Arf17, 3 uM), 3.40 LR/cm. The lateral root density was determined as 2.02 LR/cm in the experiment on auxin signaling mutants [1] (Axrt-12, 3 uM); 19.35 LR/cm in the experiment with auxin signaling mutants [1] (Cyp79, 3 uM); 0.00 LR/cm in the experiment on auxin signaling mutants [1] (Iaa28-1, 3 uM); 1.01 LR/cm in the experiment with auxin signaling mutants [1] (Tir1-1, 3 uM); 5.73 LR/cm with auxin signaling mutants [1] (Tir7-1, 3 uM); 0.00 LR/cm with auxin signaling mutants [1] (TirTM, 3 uM). Besides, the lateral root density in the experiment on auxin signaling mutants [1] (Xbat32, 3 uM) was found to be 1.23 LR/cm.

`Cc1ccccc1OCC(=O)NN=Cc1ccc(C(=O)O)cc1` [A9, 4-{2-[(2-methylphenoxy)acetyl]carbonohydrazonoyl}benzoic acid]: the lateral root density amounted to 13.57 LR/cm with auxin signaling mutants [1] (Afb1-1, 30 uM); 11.19 LR/cm with auxin signaling mutants [1] (Afb2-1, 30 uM); 16.77 LR/cm in the experiment with auxin signaling mutants [1] (Afb3-1, 30 uM); 0.25 LR/cm in the experiment on auxin signaling mutants [1] (Arf7Arf19, 30 uM); 6.67 LR/cm in the experiment with auxin signaling mutants [1] (Arf16, 30 uM); 12.86 LR/cm in the experiment with auxin signaling mutants [1] (Arf17, 30 uM). The lateral root density in the experiment with auxin signaling mutants [1] (Axrt-12, 30 uM) is listed as 6.09 LR/cm; with auxin signaling mutants [1] (Cyp79, 30 uM), 13.29 LR/cm; in the experiment on auxin signaling mutants [1] (Iaa28-1, 30 uM) it was 12.33 LR/cm; in the experiment with auxin signaling mutants [1] (Tir1-1, 30 uM) it was 3.29 LR/cm; with auxin signaling mutants [1] (Tir7-1, 30 uM), 17.91 LR/cm; in the experiment with auxin signaling mutants [1] (TirTM, 30 uM), 0.00 LR/cm. The lateral root density in the experiment on auxin signaling mutants [1] (Xbat32, 30 uM) stood at 8.43 LR/cm.

For the compound `O=Cc1ccc(-c2cccc(C(F)(F)F)c2)o1` [A11var5], the “effect on LR formation (LR density), structure-activity analysis” value in experiment [2] (structural variants, FIG. 6-8) is “minimal substructure required to induce LR formation”.

As for `NC(=S)NN=Cc1ccc(-c2cccc(C(F)(F)F)c2)o1` [A12, 5-[3-(trifluoromethyl)phenyl]-2-furaldehyde thiosemicarbazone], in experiment [2] (dose-response, FIG. 3), the “potency as activator of LR development (LR density)” value is “most potent activators of class 2”. The LR density is 9.09 in the experiment on auxin signaling mutants [3] (CDKB DN); 16.70 in the experiment with auxin signaling mutants [3] (Ws); 14.16 in the experiment with auxin signaling mutants [3] (Xbat32); 15.55 with auxin signaling mutants [3] (afb1-1); 15.11 with auxin signaling mutants [3] (afb2-1); 21.32 in the experiment with auxin signaling mutants [3] (afb3-1). Besides, the LR density is reported as 1.73 with auxin signaling mutants [3] (arf7arf19 DM (double mutant)); 15.94 with auxin signaling mutants [3] (aux1); 15.84 with auxin signaling mutants [3] (axr1-12); 14.10 in the experiment with auxin signaling mutants [3] (axr5-1); 17.30 in the experiment on auxin signaling mutants [3] (cyp79b2-3 DM (double mutant)); 8.85 with auxin signaling mutants [3] (iaa28-1). The LR density was determined as 15.27 in the experiment on auxin signaling mutants [3] (lax3); 27.49 in the experiment with auxin signaling mutants [3] (msg2-1); 0.00 in the experiment on auxin signaling mutants [3] (slr-1); 13.38 in the experiment on auxin signaling mutants [3] (tir1-1); 17.30 in the experiment with auxin signaling mutants [3] (tir7-1); 4.82 with auxin signaling mutants [3] (setting [4]). For the same compound, the Root length with auxin signaling mutants [3] (CDKB DN) came to 1.56; in the experiment with auxin signaling mutants [3] (Col-0), 2.24; in the experiment on auxin signaling mutants [3] (Ws), 1.92; with auxin signaling mutants [3] (Xbat32) it was 2.44; in the experiment with auxin signaling mutants [3] (afb1-1), 1.86; in the experiment with auxin signaling mutants [3] (afb2-1), 1.71. Besides, the Root length came to 2.17 in the experiment on auxin signaling mutants [3] (afb3-1); 3.45 in the experiment with auxin signaling mutants [3] (arf7arf19 DM (double mutant)); 2.24 with auxin signaling mutants [3] (aux1); 1.62 in the experiment with auxin signaling mutants [3] (axr1-12); 3.40 in the experiment with auxin signaling mutants [3] (axr5-1); 2.26 with auxin signaling mutants [3] (cyp79b2-3 DM (double mutant)). Besides, the Root length in the experiment on auxin signaling mutants [3] (iaa28-1) is on record as 3.39; with auxin signaling mutants [3] (lax3), 2.48; in the experiment on auxin signaling mutants [3] (msg2-1), 1.58; in the experiment with auxin signaling mutants [3] (slr-1), 1.90; with auxin signaling mutants [3] (tir1-1) it was 2.34; in the experiment on auxin signaling mutants [3] (tir7-1), 1.52. In the experiment on auxin signaling mutants [3] (setting [4]), this compound returned a Root length of 2.60. Further, the lateral root density in the experiment on auxin signaling mutants [1] (Afb1-1, 30 uM) amounted to 23.19 LR/cm; with auxin signaling mutants [1] (Afb2-1, 30 uM), 10.44 LR/cm; in the experiment with auxin signaling mutants [1] (Afb3-1, 30 uM), 21.05 LR/cm; in the experiment with auxin signaling mutants [1] (Arf7Arf19, 30 uM), 0.94 LR/cm; in the experiment on auxin signaling mutants [1] (Arf16, 30 uM) it was 10.94 LR/cm; in the experiment on auxin signaling mutants [1] (Arf17, 30 uM) it was 15.09 LR/cm. In addition, the lateral root density amounted to 14.15 LR/cm in the experiment with auxin signaling mutants [1] (Axrt-12, 30 uM); 22.76 LR/cm in the experiment with auxin signaling mutants [1] (Cyp79, 30 uM); 10.00 LR/cm in the experiment with auxin signaling mutants [1] (Iaa28-1, 30 uM); 27.42 LR/cm with auxin signaling mutants [1] (Tir7-1, 30 uM); 0.00 LR/cm in the experiment with auxin signaling mutants [1] (TirTM, 30 uM).

The record behind these values is patent US8486863B2, “Activators of lateral root formation” (VIB VZW, priority 2006, dated 2013).
